Assay results from patent US11447466B2, “Substituted indole compounds useful as inhibitors of TLR7/8/9” (BRISTOL-MYERS SQUIBB COMPANY, priority 2017, dated 2022).

What was measured:
Format in all cases: cell-based
[1] = molecular target: T1, human TLR7 (Homo sapiens, UniProt Q9NYK1); assay: TLR7 inhibition reporter assay (HEK-Blue SEAP reporter, gardiquimod stimulation); conditions: HEK-Blue cells overexpressing human TLR7, SEAP reporter, gardiquimod 7.5 μM, 22 hour incubation
T1 construct: host or cells: HEK-Blue cells
T1 sequence (Q9NYK1 27-1049): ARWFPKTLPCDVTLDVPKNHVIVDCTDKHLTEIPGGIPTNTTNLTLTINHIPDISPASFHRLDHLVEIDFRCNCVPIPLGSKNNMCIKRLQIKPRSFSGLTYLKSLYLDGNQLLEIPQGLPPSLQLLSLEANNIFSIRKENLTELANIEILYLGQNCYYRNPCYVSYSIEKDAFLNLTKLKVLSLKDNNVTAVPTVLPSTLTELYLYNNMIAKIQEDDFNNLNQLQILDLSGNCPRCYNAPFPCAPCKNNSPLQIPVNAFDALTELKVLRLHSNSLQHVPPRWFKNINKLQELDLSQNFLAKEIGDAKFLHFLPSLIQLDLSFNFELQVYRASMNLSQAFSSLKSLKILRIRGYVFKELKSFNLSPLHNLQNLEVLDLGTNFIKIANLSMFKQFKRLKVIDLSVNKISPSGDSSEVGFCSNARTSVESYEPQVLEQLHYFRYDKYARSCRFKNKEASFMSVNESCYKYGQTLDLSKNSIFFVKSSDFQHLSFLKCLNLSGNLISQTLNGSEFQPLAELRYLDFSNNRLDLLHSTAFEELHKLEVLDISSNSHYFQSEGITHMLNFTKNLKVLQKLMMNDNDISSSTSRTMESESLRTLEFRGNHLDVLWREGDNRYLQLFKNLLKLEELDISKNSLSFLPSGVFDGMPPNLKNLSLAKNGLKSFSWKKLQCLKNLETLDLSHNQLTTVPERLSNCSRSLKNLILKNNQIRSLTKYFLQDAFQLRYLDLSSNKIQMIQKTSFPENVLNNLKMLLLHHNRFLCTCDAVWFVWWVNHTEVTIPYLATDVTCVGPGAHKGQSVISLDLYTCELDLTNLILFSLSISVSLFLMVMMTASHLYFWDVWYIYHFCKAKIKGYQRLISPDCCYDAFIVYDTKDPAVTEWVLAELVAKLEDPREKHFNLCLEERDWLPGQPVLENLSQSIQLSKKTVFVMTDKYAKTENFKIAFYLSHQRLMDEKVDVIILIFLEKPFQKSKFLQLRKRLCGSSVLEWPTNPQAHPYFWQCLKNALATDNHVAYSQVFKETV
Outline: (§1)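 Compound treatment: 30 min, RT, 0.05 nM–50 μM final. Agonist: TLR7 gardiquimod 7.5 μM; TLR8 R848 15.9 μM; TLR9 ODN2006 5 nM. Incubation 22 h, 37 °C, 5% CO2. Readout SEAP, HEK-Blue Detection.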

[2] = molecular target: T2, human TLR8 (Homo sapiens, UniProt Q9NR97); assay: TLR8 inhibition reporter assay (HEK-Blue SEAP reporter, R848 stimulation); conditions: HEK-Blue cells overexpressing human TLR8, SEAP reporter, R848 15.9 μM, 22 hour incubation
T2 construct: host or cells: HEK-Blue cells
T2 sequence (Q9NR97 27-1041): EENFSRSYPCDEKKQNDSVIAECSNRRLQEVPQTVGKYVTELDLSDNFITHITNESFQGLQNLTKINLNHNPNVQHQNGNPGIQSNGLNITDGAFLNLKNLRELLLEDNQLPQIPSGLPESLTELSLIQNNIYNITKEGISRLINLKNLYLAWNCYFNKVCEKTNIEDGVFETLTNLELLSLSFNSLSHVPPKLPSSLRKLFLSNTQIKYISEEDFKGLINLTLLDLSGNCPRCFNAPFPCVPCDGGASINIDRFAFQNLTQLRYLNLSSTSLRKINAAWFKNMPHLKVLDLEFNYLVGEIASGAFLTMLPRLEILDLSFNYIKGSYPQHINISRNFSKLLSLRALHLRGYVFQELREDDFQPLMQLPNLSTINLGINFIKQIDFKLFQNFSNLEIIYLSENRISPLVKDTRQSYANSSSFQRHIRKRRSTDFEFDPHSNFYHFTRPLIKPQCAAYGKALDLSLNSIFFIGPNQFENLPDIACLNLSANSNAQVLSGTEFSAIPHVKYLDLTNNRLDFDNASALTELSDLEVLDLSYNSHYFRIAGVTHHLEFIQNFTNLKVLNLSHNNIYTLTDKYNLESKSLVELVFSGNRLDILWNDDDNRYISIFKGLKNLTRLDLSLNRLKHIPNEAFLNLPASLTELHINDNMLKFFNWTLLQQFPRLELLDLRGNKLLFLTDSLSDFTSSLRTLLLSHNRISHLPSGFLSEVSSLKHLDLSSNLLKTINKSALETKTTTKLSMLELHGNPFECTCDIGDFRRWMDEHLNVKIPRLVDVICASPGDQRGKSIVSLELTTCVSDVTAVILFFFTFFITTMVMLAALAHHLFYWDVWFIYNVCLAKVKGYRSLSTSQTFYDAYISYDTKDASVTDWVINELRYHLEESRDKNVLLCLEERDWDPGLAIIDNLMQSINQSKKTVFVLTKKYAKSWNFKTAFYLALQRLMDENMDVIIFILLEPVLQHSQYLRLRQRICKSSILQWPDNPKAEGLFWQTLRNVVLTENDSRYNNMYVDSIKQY
Outline: as §1

[3] = molecular target: T3, human TLR9 (Homo sapiens, UniProt Q9NR96); assay: TLR9 inhibition reporter assay (HEK-Blue SEAP reporter, ODN2006 stimulation); conditions: HEK-Blue cells overexpressing human TLR9, SEAP reporter, ODN2006 5 nM, 22 hour incubation
T3 construct: host or cells: HEK-Blue cells
T3 sequence (Q9NR96 26-1032): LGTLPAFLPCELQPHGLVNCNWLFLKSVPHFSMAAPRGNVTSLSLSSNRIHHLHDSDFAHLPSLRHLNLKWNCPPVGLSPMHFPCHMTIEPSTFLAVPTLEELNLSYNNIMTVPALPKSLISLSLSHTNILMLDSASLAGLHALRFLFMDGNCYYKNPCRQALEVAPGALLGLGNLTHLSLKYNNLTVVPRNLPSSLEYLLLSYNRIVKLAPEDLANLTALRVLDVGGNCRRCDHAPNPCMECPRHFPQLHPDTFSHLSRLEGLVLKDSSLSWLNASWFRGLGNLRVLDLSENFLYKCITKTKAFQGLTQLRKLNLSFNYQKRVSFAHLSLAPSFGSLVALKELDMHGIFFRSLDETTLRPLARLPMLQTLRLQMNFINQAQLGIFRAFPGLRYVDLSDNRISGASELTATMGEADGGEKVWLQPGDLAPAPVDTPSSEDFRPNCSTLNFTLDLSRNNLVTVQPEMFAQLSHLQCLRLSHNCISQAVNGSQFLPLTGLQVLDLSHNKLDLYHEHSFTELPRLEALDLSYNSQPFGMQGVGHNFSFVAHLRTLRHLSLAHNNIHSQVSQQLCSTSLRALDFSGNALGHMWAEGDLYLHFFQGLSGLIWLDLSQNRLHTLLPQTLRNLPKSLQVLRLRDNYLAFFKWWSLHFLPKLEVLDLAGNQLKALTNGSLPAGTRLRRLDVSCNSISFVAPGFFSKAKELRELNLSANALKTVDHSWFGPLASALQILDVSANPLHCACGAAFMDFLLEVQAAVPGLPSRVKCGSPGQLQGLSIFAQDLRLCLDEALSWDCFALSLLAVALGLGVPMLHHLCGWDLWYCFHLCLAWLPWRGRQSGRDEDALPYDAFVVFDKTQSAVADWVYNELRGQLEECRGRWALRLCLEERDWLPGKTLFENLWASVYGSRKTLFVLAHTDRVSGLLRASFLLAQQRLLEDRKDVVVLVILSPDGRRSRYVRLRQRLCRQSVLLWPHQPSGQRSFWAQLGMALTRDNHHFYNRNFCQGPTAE
Outline: as §1

Compound	IC50 [1]	IC50 [2]	IC50 [3]
COc1cc(-c2[nH]c3ccc(C4CCN(CC(C)(C)O)CC4)cc3c2C(C)C)c(C)n(C)c1=O [Example 318, 5-(5-(1-(2-hydroxy-2-methylpropyl)piperidin-4-yl)-3-isopropyl-1H-indol-2-yl)-3-methoxy-1,6-dimethylpyridin-2(1H)-one]	361 nM	22.3 nM	3430 nM
Cc1c(-c2[nH]c3ccc(C4CCN(CC5(O)CCOCC5)CC4)cc3c2C(C)C)cn(C)c(=O)c1C [Example 319, 5-(5-(1-((4-hydroxytetrahydro-2H-pyran-4-yl)methyl)piperidin-4-yl)-3-isopropyl-1H-indol-2-yl)-1,3,4-trimethylpyridin-2(1H)-one]	10.9 nM	1.6 nM	4330 nM
Cc1cc(-c2[nH]c3ccc(C4CCN(CC5(O)CCOCC5)CC4)cc3c2C(C)C)c(C)n(C)c1=O [Example 320, 5-(5-(1-((4-hydroxytetrahydro-2H-pyran-4-yl)methyl)piperidin-4-yl)-3-isopropyl-1H-indol-2-yl)-1,3,6-trimethylpyridin-2(1H)-one]	14.2 nM	1.7 nM	2310 nM
Cc1c(-c2[nH]c3ccc(C4CCN(CC(C)(C)O)CC4)cc3c2C(C)C)cc(C#N)c(=O)n1C [Example 321, 5-(5-(1-(2-hydroxy-2-methylpropyl)piperidin-4-yl)-3-isopropyl-1H-indol-2-yl)-1,6-dimethyl-2-oxo-1,2-dihydropyridine-3-carbonitrile]	36.7 nM	1.6 nM	4370 nM
Cc1c(-c2[nH]c3ccc(C4CCN(CC(C)(C)O)CC4)cc3c2C(C)C)cn(C)c(=O)c1C#N [Example 322, 5-(5-(1-(2-hydroxy-2-methylpropyl)piperidin-4-yl)-3-isopropyl-1H-indol-2-yl)-1,4-dimethyl-2-oxo-1,2-dihydropyridine-3-carbonitrile]	45.7 nM	1 nM	4790 nM
COCc1cc(-c2[nH]c3ccc(C4CCN(CC(C)(C)O)CC4)cc3c2C(C)C)cn(C)c1=O [Example 323, 5-(5-(1-(2-hydroxy-2-methylpropyl)piperidin-4-yl)-3-isopropyl-1H-indol-2-yl)-3-(methoxymethyl)-1-methylpyridin-2(1H)-one]	18.4 nM	13.9 nM	7180 nM

Other lines, results leading:

IC50 [1]	IC50 [2]	IC50 [3]	Compound
2.5 nM	2.8 nM	11500 nM	Cc1cc(-c2[nH]c3ccc(C4CCN(CC(O)C(C)C)CC4)cc3c2C(C)C)cn(C)c1=O (stereo not drawn) [Example 324, 5-(5-(1-(2-hydroxy-3-methylbutyl)piperidin-4-yl)-3-isopropyl-1H-indol-2-yl)-1,3-dimethylpyridin-2(1H)-one]
8.7 nM	4.3 nM	3000 nM	Cc1cc(-c2[nH]c3ccc(C4CCN(CC(O)C(C)(C)C)CC4)cc3c2C(C)C)cn(C)c1=O (stereo not drawn) [Example 325, 5-(5-(1-(2-hydroxy-3,3-dimethylbutyl)piperidin-4-yl)-3-isopropyl-1H-indol-2-yl)-1,3-dimethylpyridin-2(1H)-one]
6.1 nM	0.6 nM	1660 nM	CC(C)c1c(-c2cc(-c3cncnc3)c(=O)n(C)c2)[nH]c2ccc(C3CCN(CC(C)(C)O)CC3)cc12 [Example 326, 5-(5-(1-(2-hydroxy-2-methylpropyl)piperidin-4-yl)-3-isopropyl-1H-indol-2-yl)-1-methyl-3-(pyrimidin-5-yl)pyridin-2(1H)-one]
6 nM	1.6 nM	3280 nM	Cc1c(-c2[nH]c3ccc(C4CCN(CC(C)(C)O)CC4)c(F)c3c2C(C)C)cn(C)c(=O)c1Cl [Example 327, 3-chloro-5-(4-fluoro-5-(1-(2-hydroxy-2-methylpropyl)piperidin-4-yl)-3-isopropyl-1H-indol-2-yl)-1,4-dimethylpyridin-2(1H)-one]
49.1 nM	54.7 nM	5970 nM	Cc1cc(-c2[nH]c3ccc(C4CCN(CC(C)(C)O)CC4)cc3c2C(C)C)cn(CC(C)C)c1=O [Example 328, 5-(5-(1-(2-hydroxy-2-methylpropyl)piperidin-4-yl)-3-isopropyl-1H-indol-2-yl)-1-isobutyl-3-methylpyridin-2(1H)-one]
7.7 nM	432 nM	705 nM	CCCN1CCC(c2ccc3[nH]c(-c4cc(-c5ccc(N6CCOCC6)nc5)c(=O)n(C)c4)c(C(C)C)c3c2)CC1 [Example 330, 5-(3-isopropyl-5-(1-propylpiperidin-4-yl)-1H-indol-2-yl)-1-methyl-6′-morpholino-[3,3′-bipyridin]-2(1H)-one]
6.3 nM	9.6 nM	2710 nM	CCCN1CCC(c2ccc3[nH]c(-c4cc(-c5cnc(OC)nc5)c(=O)n(C)c4)c(C(C)C)c3c2)CC1 [Example 331, 5-(3-isopropyl-5-(1-propylpiperidin-4-yl)-1H-indol-2-yl)-3-(2-methoxypyrimidin-5-yl)-1-methylpyridin-2(1H)-one]
